Molecules are shown by their SMILES. Read-outs that look alike come from different tables or passages of the source. Bounds are passed on as bounds.

Assay [1] relates to Male Sprague Dawley (SD) rats. Nature of the assay: OGTT by co-administration with SGLT2 inhibitor-based drug (empagliflozin). In kind it is in vivo, rat. As for the experimental part:
The experimental results were expressed as mean and standard error (Mean±SE), and the differences between the control and the experimental groups were tested by one-way ANOVA (a Dunnett method) of “GraphPad Prism 4” software (Graphpad co., La Jolla, Calif., USA). Here, p<0.05 was considered statistically significant.

The test system of assay [2] is Male Sprague Dawley (SD) rats. Nature of the assay: Blood GLP-1 concentration increase after oral administration. It counts as in vivo, rat. Particulars: Example 9 at 10-100 mg/kg, plasma after 20 minutes, FIG. 2.
Assay [3] deals with Male Sprague Dawley rats. The assay can be described thus: Oral glucose tolerance test (OGTT) 1. It counts as in vivo. To be noted: Rattus norvegicus, 2 h; SD rats; 10 mg/kg oral; glucose 4 g/kg 30 minutes after; read-out: % AUC (reduction (%) of blood glucose AUC). Here is the method: Male Sprague Dawley rats aged 8-10 weeks old were acclimated for at least 7 days, and then only healthy animals were used for the oral glucose tolerance test (OGTT test). After fasting for 16-18 hours, five rats per group were randomly grouped and orally administered with the compounds prepared in Examples 2, 3, 4, 6, 9, 12, 14, 16, 25, 29, 36, 37, 41, 43, and 44 at a dose of 10 mg/kg each. Here, as for a non-treated group (vehicle), a solution (PEG 400/Tween 80/0.25% CMC, 5%/5%/90%, v/v/v) containing 5% polyethyleneglycol/5% tween 80/0.25% carboxymethylcelluluse (CMC) was orally administered at the same dose. Glucose (4 g/kg) was orally administered at a dose of 5 ml/kg 30 minutes after each sample was administered. Then, the blood glucose was measured by using Accu-chek active strip (Roche diagnostic Co.).

Assay [4] relates to Male Sprague Dawley (SD) rats. Nature of the assay: OGTT by co-administration with DPPIV inhibitor (linagliptin), SD rat model. It counts as in vivo. Particulars: Example 9 3 mg/kg alone. Here is the method:
The blood glucose was measured by using Accu-chek active strip (Roche diagnostic Co.).

Assay [5] has as its system Male Sprague Dawley (SD) rats. The assay can be described thus: OGTT by co-administration with biguanide-based drug (metformin), SD rat model. In kind it is in vivo.
The subject of assay [6] is male diet-induced obesity (DIO) mice. The assay can be described thus: OGTT by co-administration with DPPIV inhibitor (sitagliptin), mouse model. Particulars: oral. In kind it is in vivo. Here is the method: Here, as for a non-treated group, 5% carboxymethyl cellulose (CMC) was orally administered at the same dose. […] Each test sample and 0.5% carboxymethyl cellulase (CMC) were orally administered at 5 ml/kg.

For assay [7], the system named is male Zucker diabetic fatty (ZDF) rats. Nature of the assay: OGTT by co-administration with biguanide-based drug (metformin), type II diabetic rat model. In kind it is in vivo.
Assay [8] deals with INS-1 cells (rat insulinoma cell line). Nature of the assay: Insulin secretion experiment. In kind it is cell-based. To be noted: 25 mM glucose. As for the experimental part:
INS-1 cells (rat insulinoma cell line) were seeded in a 24-well plate at 5×10^5 cells/well, and cultured for 48 hours. […] The amount of insulin secreted in the insulin ELISA kit (Morinaga) was measured using the supernatant of the cells after the experiment was ended (see Table 16 and FIG. 11).

The test system of assay [9] is male diet-induced obesity (DIO) mice. Nature of the assay: OGTT by co-administration with sulfonylurea-based drug (glimepiride). In kind it is in vivo, mouse. To be noted: oral. Here is the method:
Here, as for a non-treated group, 5% carboxymethyl cellulose (CMC) was orally administered at the same dose. In addition, 10 mg/kg of glimepiride, which is well known as a sulfonylurea-based drug, was administered alone. […] The saline and test materials were orally administered at 5 ml/kg.

The test system is the same in assay [10]. Nature of the assay: OGTT by co-administration with thiazolidinedione (TZD)-based drug. To be noted: oral.
The target of assay [11] is T1, human GPR40 (Homo sapiens, UniProt O14842).
T1 construct: host or cells: HEK-293
T1 sequence (O14842 whole entry): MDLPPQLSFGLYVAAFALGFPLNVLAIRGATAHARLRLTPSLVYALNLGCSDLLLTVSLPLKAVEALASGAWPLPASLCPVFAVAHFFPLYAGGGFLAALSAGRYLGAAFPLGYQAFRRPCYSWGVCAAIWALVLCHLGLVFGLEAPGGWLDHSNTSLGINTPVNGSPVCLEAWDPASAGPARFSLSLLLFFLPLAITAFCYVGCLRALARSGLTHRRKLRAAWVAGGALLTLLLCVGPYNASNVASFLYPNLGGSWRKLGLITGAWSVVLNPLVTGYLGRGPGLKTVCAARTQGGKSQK
The assay can be described thus: Activation of GPR40 protein: intracellular calcium change (Fluo-4, Flexstation 3) in transfected HEK-293 cells. To be noted: HEK-293 cells transfected with human GPR40. In kind it is cell-based. As for the experimental part: The activation of GPR40 protein by a novel 3-(4-(benzyloxy)phenyl)hex-4-ynoic acid derivative of the present invention was evaluated through the change in intracellular calcium concentration due to the activity of GPR40 protein. First, HEK-293 cells were transfected with human GPR40 DNA (Origene, RC218370) by using Fugene HD (Promega, E2311). […] After 24 hours, the cell culture medium was removed, and replaced with Dulbecco's Modified Eagle Medium (DMEM, 50 μl) supplemented with 1% fetal bovine serum (FBS). For the measurement of calcium concentration, 50 μL of Fluo-4 reagent (Invitrogen, F10471) was added to each well and cultured in a 37° C. incubator for 2 hours. […] Two hours after the initiation of the culture, the prepared samples were automatically injected into the cells using Flexstation 3 (Molecular Devices), and then, the change in intracellular calcium concentration was measured using SoftMax®Pro software for 120 seconds. Here, for a non-treated group, dimethylsulfoxide (DMSO) was injected into the cells to measure the change in calcium concentration. The GPR40 protein activity was calculated from the measured calcium concentration result values using equation 1 below, and the GPR40 activity (EC50 value) by the samples was obtained. […] GPR 40 activity=(intracellular calcium concentration increased by the sample)/(intracellular calcium concentration of the non-treated group)×100 [Equation 1]

[12] abbreviates: intracellular calcium, read-out: EC50.
Setting [13] is: values in text, read-out: concentration activating the GPR40 protein by 50% (EC50).

In the case of `OC[C@H]1O[C@@H](c2ccc(Cl)c(Cc3ccc(O[C@H]4CCOC4)cc3)c2)[C@H](O)[C@@H](O)[C@@H]1O` [Empagliflozin, empagliflozin], the “Reduction (%) of blood glucose AUC” value amounted to 6.5% in [1] (empagliflozin 1 mg/kg alone), 9.2% in assay [1] (empagliflozin 3 mg/kg alone) and 29.5% in assay [1] (empagliflozin 10 mg/kg alone).

With `CC#C[C@@H](CC(=O)O)c1ccc(OCc2cccc(C3=CCC4(CC3)OCCO4)c2)cc1` [Example 9, L-lysine (3S)-3-(4-(3-(1,4-dioxaspiro[4.5]dec-7-en-8-yl)benzyloxy)phenyl)hex-4-ynoate], the “blood GLP-1 concentration compared with the glucose treated group (Veh.)” value in assay [2] is given as “increased the blood GLP-1 concentration”. The inhibition in vivo at 10 mg/kg in assay [3] worked out at 24.7%. The “Reduction (%) of blood glucose AUC” value was found to be 14.8% in assay [1] (Example 9 3 mg/kg alone); 14.8% in [4]; 14.5% in [5] (Example 9 3 mg/kg alone); 10.1% in assay [6] (Example 9 30 mg/kg alone); 15.4% in [6] (Example 9 100 mg/kg alone); 34.2% in assay [7] (oral, Example 9 1 mg/kg alone). The “Reduction (%) of blood glucose AUC” value was 40.9% in assay [7] (oral, Example 9 3 mg/kg alone); 37.8% in assay [7] (oral, Example 9 10 mg/kg alone); 9.1% in assay [9] (Example 9 10 mg/kg alone); 11.4% in [9] (Example 9 30 mg/kg alone); 12.7% in [9] (Example 9 100 mg/kg alone); 24.9% in assay [10] (Example 9 10 mg/kg alone). Moreover, the “Reduction (%) of blood glucose AUC” value in [10] (Example 9 30 mg/kg alone) was 20.2%. In assay [8] (Example 9 0.01 μM alone), the “Insulin” value came out at 99 ng/mL.

For `CC#CC(CC(=O)O)c1ccc(OCc2ccc(CN3CCc4ccccc4C3)cc2)cc1` (stereo not drawn) [Example 12, 3-(4-(4-((3,4-dihydroisoquinolin-2(1H)-yl)methyl)benzyloxy)phenyl)hex-4-ynoic acid], the EC50 in [11] (setting [12]) is under 200 nM; in [11] (setting [13]), at most 200 nM. Moreover, the inhibition in vivo at 10 mg/kg in assay [3] was 31%.

For the molecule `CC#CC(CC(=O)O)c1ccc(OCc2ccc(CN3CC=C(c4ccccc4)CC3)cc2)cc1` (stereo not drawn) [Example 14, 3-(4-(4-((4-phenyl-5,6-dihydropyridin-1(2H)-yl)methyl)benzyloxy)phenyl)hex-4-ynoic acid], the EC50 is under 200 nM in assay [11] (setting [12]) and at most 200 nM in assay [11] (setting [13]). Moreover, in assay [3], the inhibition in vivo at 10 mg/kg amounted to 27.7%.

As for `CC#CC(CC(=O)O)c1ccc(OCc2ccc(CN3CCc4cc(OC)ccc4C3)cc2)cc1` (stereo not drawn) [Example 16, 3-(4-(4-((6-methoxy-3,4-dihydroisoquinolin-2(1H)-yl)methyl)benzyloxy)phenyl)hex-4-ynoic acid], the EC50 in assay [11] (setting [12]) was over 300 nM. Besides, in [3], the inhibition in vivo at 10 mg/kg was 21.1%.

As for `CC#C[C@@H](CC(=O)O)c1ccc(OCc2ccc(CN3CCc4cc(OC)ccc4C3)cc2)cc1` [Example 25, (S)-3-(4-(4-((6-methoxy-3,4-dihydroisoquinolin-2(1H)-yl)methyl)benzyloxy)phenyl)hex-4-ynoic acid], the EC50 in [11] (setting [12]) is over 300 nM. Also, in assay [3], the inhibition in vivo at 10 mg/kg came out at 24.6%.

Turning to `CC#C[C@@H](CC(=O)O)c1ccc(OCc2ccc(CN3CCN(c4ccc(OCCCS(C)(=O)=O)cc4)CC3)cc2)cc1` [Example 36, (S)-3-(4-(4-((4-(4-(3-(methylsulfonyl)propoxy)phenyl)piperazin-1-yl)methyl)benzyloxy)phenyl)hex-4-ynoic acid], in [11] (setting [12]), the EC50 is over 300 nM. Also, the inhibition in vivo at 10 mg/kg in assay [3] was determined as 22.6%.

Regarding `CC#C[C@@H](CC(=O)O)c1ccc(OCc2ccc(CN3CCCc4ccccc43)cc2)cc1` [Example 41, sodium (S)-3-(4-(4-((3,4-dihydroquinolin-1(2H)-yl)methyl)benzyloxy)phenyl)hex-4-ynoate], in [11] (setting [12]), the EC50 is over 300 nM. In assay [3], the inhibition in vivo at 10 mg/kg worked out at 23.7%.

Take `CC#C[C@@H](CC(=O)O)c1ccc(OCc2ccc(CN3CCN(c4nc5ccccc5s4)CC3)cc2)cc1` [Example 43, (S)-3-(4-(4-((4-(benzo[d]thiazol-2-yl)piperazin-1-yl)methyl)benzyloxy)phenyl)hex-4-ynoic acid]: the EC50 in assay [11] (setting [12]) was over 300 nM. The inhibition in vivo at 10 mg/kg in assay [3] turned out to be 21.2%.

In the case of `CC#C[C@@H](CC(=O)O)c1ccc(OCc2ccc(CN3CCN(c4ncc(CCC)cn4)CC3)cc2)cc1` [Example 44, (S)-3-(4-(4-((4-(5-propylpyrimidin-2-yl)piperazin-1-yl)methyl)benzyloxy)phenyl)hex-4-ynoic acid], in assay [11] (setting [12]), the EC50 was over 300 nM. Further, the inhibition in vivo at 10 mg/kg in assay [3] was 22.8%.

Consider `COc1ccc(Cl)cc1C(=O)NCCc1ccc(S(=O)(=O)NC(=O)NC2CCCCC2)cc1` [Glibenclamide, glibenclamide], for which the “Insulin” value stood at 73 ng/mL in assay [8] (glibenclamide 0.1 μM alone, vehicle 58) and 72 ng/mL in assay [8] (glibenclamide 1 μM alone).

For `CCC1=C(C)CN(C(=O)NCCc2ccc(S(=O)(=O)NC(=O)N[C@H]3CC[C@H](C)CC3)cc2)C1=O` [Glimepiride, glimepiride, reference compound], the “Reduction (%) of blood glucose AUC” value in assay [9] (glimepiride 10 mg/kg alone) turned out to be 44.6%.

Turning to `CN(C)C(=N)N=C(N)N` [Metformin, metformin], the “Reduction (%) of blood glucose AUC” value is 3.9% in [5] (metformin 10 mg/kg alone), 7.3% in [5] (metformin 50 mg/kg alone), 10.0% in assay [5] (metformin 100 mg/kg alone) and 21.7% in assay [7] (metformin 50 mg/kg alone).

As for `CCc1ccc(CCOc2ccc(CC3SC(=O)NC3=O)cc2)nc1` (stereo not drawn) [Pioglitazone, pioglitazone, reference compound], the “Reduction (%) of blood glucose AUC” value in assay [10] (pioglitazone 10 mg/kg alone) worked out at 27.9%.

The values are drawn from patent publication US10821110B2, “Composite preparation, containing novel 3-(4--(benzyloxy)phenyl)hex-4-inoic acid derivative and another active ingredient, for preventing or treating metabolic diseases” (HYUNDAI PHARM CO., LTD., priority 2014, dated 2020).
